Laboratory results from patent US6248739A, “Quinolinecarboxamides as antiviral agents” (Pharmacia & Upjohn Company, priority 1999, dated 2001).

The compounds below were run against T1, HCMV polymerase (Human cytomegalovirus, UniProt P08546) (assay: biochemical). Details: not given.
T1 construct: made in house; host or cells: recombinant baculovirus-infected SF-9 insect cells
Description: The HCMV polymerase assay is performed using a scintillation proximity assay (SPA) as described in several references, such as N. D. Cook, et al., Pharmaceutical Manufacturing International, pages 49-53 (1992); K. Takeuchi, Laboratory Practice, September issue (1992); U.S. Pat. No. 4,568,649 (1986); which are incorporated by reference herein. Reactions are performed in 96-well plates. The assay is conducted in 100 μl volume with 5.4 mM HEPES (pH 7.5), 11.7 mM KCl, 4.5 mM MgCl2, 0.36 mg/ml BSA, and 90 nM ^3 H-dTTP. Assays are run with and without CHAPS, (3-[(3-Cholamidopropyl)dimethylammonio]-1-propane-sulfonate) at a final concentration of 2 mM. HCMV polymerase is diluted in enzyme dilution buffer containing 50% glycerol, 250 mM NaCl, 10 mM HEPES (pH 7.5), 100 μg/ml BSA, and 0.01% sodium azide. The HCMV polymerase, which is expressed in recombinant baculovirus-infected SF-9 cells and purified according to literature procedures, is added at 10% (or 10 μl) of the final reaction volume, i.e., 100 μl. Compounds are diluted in 50% DMSO and 10 μl are added to each well. Control wells contain an equivalent concentration of DMSO. Unless noted otherwise, reactions are initiated via the addition of 6 nM biotinylated poly(dA)-oligo(dT) template/primer to reaction mixtures containing the enzyme, substrate, and compounds of interest. Plates are incubated in a 25 C. or 37 C. H2 O bath and terminated via the addition of 40 μl/reaction of 0.5 M EDTA (pH 8) per well. Reactions are terminated within the time-frame during which substrate incorporation is linear and varied depending upon the enzyme and conditions used, i.e., 30 min. for HCMV polymerase. Ten μl of streptavidin-SPA beads (20 mg/ml in PBS/10% glycerol) are added following termination of the reaction. Plates are incubated 10 min. at 37 C., then equilibrated to room temperature, and counted on a Packard Topcount. Linear regressions are performed and IC50 's are calculated using computer software.
A modified version of the above HCMV polymerase assay is performed as described above, but with the following changes: Compounds are diluted in 100% DMSO until final dilution into assay buffer. In the previous assay, compounds are diluted in 50% DMSO. 4.5 mM dithiotherotol (DTT) is added to the polymerase buffer.

T1 sequence (P08546 whole entry): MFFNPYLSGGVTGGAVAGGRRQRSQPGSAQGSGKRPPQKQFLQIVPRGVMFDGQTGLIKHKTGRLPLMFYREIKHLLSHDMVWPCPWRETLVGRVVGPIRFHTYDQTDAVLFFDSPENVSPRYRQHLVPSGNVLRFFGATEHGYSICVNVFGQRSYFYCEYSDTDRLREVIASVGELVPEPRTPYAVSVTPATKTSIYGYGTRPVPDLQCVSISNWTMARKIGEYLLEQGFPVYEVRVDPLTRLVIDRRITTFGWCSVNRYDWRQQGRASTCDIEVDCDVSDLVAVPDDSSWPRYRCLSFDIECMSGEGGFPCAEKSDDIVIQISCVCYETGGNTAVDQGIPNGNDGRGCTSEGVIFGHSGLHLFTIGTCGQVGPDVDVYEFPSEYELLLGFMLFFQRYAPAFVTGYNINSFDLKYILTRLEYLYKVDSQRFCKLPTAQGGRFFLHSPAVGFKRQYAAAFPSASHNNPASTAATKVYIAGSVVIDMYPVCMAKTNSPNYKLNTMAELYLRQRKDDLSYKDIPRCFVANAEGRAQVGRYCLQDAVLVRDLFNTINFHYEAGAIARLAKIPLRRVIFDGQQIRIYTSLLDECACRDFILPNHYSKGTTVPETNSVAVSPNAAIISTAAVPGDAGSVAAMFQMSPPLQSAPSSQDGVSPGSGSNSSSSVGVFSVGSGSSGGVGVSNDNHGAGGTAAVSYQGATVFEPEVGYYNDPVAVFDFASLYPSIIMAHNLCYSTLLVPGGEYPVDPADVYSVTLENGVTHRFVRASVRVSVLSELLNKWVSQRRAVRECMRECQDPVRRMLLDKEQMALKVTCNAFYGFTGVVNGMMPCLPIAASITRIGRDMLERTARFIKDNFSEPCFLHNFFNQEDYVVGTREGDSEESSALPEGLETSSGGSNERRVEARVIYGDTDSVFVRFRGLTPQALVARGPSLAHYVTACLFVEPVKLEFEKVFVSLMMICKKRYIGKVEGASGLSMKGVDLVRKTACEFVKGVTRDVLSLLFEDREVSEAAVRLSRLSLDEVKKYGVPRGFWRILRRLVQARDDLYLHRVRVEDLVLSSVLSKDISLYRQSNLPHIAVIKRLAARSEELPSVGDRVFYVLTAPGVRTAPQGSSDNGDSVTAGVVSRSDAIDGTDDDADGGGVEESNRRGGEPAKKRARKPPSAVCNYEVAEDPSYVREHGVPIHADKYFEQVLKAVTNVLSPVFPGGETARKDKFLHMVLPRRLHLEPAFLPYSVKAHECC

Compared with `O=C(NCc1ccc(Cl)cc1)c1cn(CCN2CCCC2)c2ccc(C#CCO)cc2c1=O` [Example 18, N-(4-Chlorobenzyl)-6-(3-hydroxy-1-propynyl)-1-[2-(1-pyrolidinyl)ethyl]-4-oxo-1,4-dihydro-3-quinolinecarboxamide], `O=C(NCc1ccc(Cl)cc1)c1cn(CCN2CCOCC2)c2ccc(C#CCO)cc2c1=O` [Example 19, N-(4-Chlorobenzyl)-6-(3-hydroxy-1-propynyl)-1-[2-(4-morpholinyl)ethyl]-4-oxo-1,4-dihydro-3-quinolinecarboxamide] is 1.5-fold lower in IC50: 2700 nM for the first, 1800 nM for the second.

`O=C(NCc1ccc(Cl)cc1)c1cn(CCCOC2CCCCO2)c2c(F)cc(CO)cc2c1=O` (centres unmarked) [Example 6, N-(4-Chlorobenzyl)-8-fluoro-6-(hydroxymethyl)-4-oxo-1-[3-(tetrahydro-2H-pyran-2-yloxy)propyl]-1,4-dihydro-3-quinolinecarboxamide] gave an IC50 of 7200 nM.

Same assay, conditions: HCMV polymerase; SPA; modified assay: compounds in 100% DMSO, 4.5 mM DTT

First: COCCOCCn1cc(C(=O)NCc2ccc(Cl)cc2)c(=O)c2cc(CN(C)CC(O)c3ccc(O)cc3)ccc21 (centres unmarked) [Example 90, N-(4-Chlorobenzyl)-6-{[[2-hydroxy-2-(4-hydroxyphenyl)ethyl](methyl)amino]methyl}-1-[2-(2-methoxyethoxy)ethyl]-4-oxo-1,4-dihydro-3-quinolinecarboxamide]
Second: COCCOCCn1cc(C(=O)NCc2ccc(Cl)cc2)c(=O)c2cc(CCCO)ccc21 [Example 83, N-(4-chlorobenzyl)-6-(3-hydroxypropyl)-1-[2-(2-methoxyethoxy)ethyl]-4-oxo-1,4-dihydro-3-quinolinecarboxamide]
The IC50 of the first is 7.3-fold higher: 4400 nM for the first, 600 nM for the second. The second is the more potent here.

Compared with `O=C(NCc1ccc(Cl)cc1)c1cn(CCCN2CCCCC2)c2ccc(C#CCO)cc2c1=O` [Example 15, N-(4-Chlorobenzyl)-6-(3-hydroxy-1-propynyl)-1-[3-(1-piperidinyl)propyl]-4-oxo-1,4-dihydro-3-quinolinecarboxamide], `O=C(O)Cn1cc(C(=O)NCc2ccc(Cl)cc2)c(=O)c2cc(C#CCO)ccc21` [Example 29, 2-[3-{[(4-Chlorobenzyl)amino]carbonyl}-6-(3-hydroxy-1-propynyl)-4-oxo-1(4H)-quinolinyl]acetic acid] is 4.1-fold lower in IC50: 4100 nM for the first, 1000 nM for the second. The second is the more potent here.

Going from `Cn1cc(C(=O)NCc2ccc(Cl)cc2)c(=O)c2cc(CN3CCCOCC3)ccc21` [Example 46, N-(4-Chlorobenzyl)-1-methyl-6-(1,4-oxazepan-4-ylmethyl)-4-oxo-1,4-dihydro-3-quinolinecarboxamide] to `O=C(NCc1ccc(Cl)cc1)c1cn(C2CC2)c2ccc(CN3CCOCC3)cc2c1=O` [Example 27, N-(4-Chlorobenzyl)-1-cyclopropyl-6-(4-morpholinylmethyl)-4-oxo-1,4-dihydro-3-quinolinecarboxamide], the IC50 falls from 5500 nM to 610 nM (9-fold). The second is the more potent here.

Going from `O=C(NCc1ccc(Cl)cc1)c1cn(C[S+]([O-])c2ccccc2)c2ccc(CN3CCOCC3)cc2c1=O` (centres unmarked) [Example 81, N-(4-Chlorobenzyl)-6-(4-morpholinylmethyl)-4-oxo-1-[(phenylsulfinyl)methyl]-1,4-dihydro-3-quinolinecarboxamide] to `O=C(NCc1ccc(Cl)cc1)c1cn(C[S+]([O-])c2ccc(Cl)cc2)c2ccc(CN3CCOCC3)cc2c1=O` (centres unmarked) [Example 102], the IC50 rises from 350 nM to 590 nM (1.7-fold). The first is the more potent here.

`O=C(NCc1ccc(Cl)cc1)c1cn(CCCS(=O)(=O)CCCO)c2ccc(CN3CCOCC3)cc2c1=O` [Example 71, N-(4-Chlorobenzyl)-1-(3-[(3-hydroxypropyl)sulfonyl]propyl)-6-(4-morpholinylmethyl)-4-oxo-1,4-dihydro-3-quinolinecarboxamide] and `CCS(=O)(=O)CCn1cc(C(=O)NCc2ccc(Cl)cc2)c(=O)c2cc(CN3CCOCC3)ccc21` [Example 69, N-(4-Chlorobenzyl)-1-[2-(ethylsulfonyl)ethyl]-6-(4-morpholinylmethyl)-4-oxo-1,4-dihydro-3-quinolinecarboxamide] are within 1.5-fold of each other in IC50: 800 nM for the first, 900 nM for the second.

`O=C(NCc1ccc(Cl)cc1)c1cn(C2CCOCC2)c2ccc(CN3CCOCC3)cc2c1=O` [Example 108, N-(4-Chlorobenzyl)-6-(4-morpholinylmethyl)-4-oxo-1-tetrahydro-2H-pyran-4-yl-1,4-dihydro-3-quinolinecarboxamide] and `O=C(NCc1ccc(Cl)cc1)c1cn(C2CCS(=O)(=O)CC2)c2ccc(CN3CCOCC3)cc2c1=O` [Example 111, N-(4-Chlorobenzyl)-1-(1,1-dioxohexahydro-thiopyran-4-yl)-6-(4-morpholinylmethyl)-4-oxo-1,4-dihydro-3-quinolinecarboxamide] are within 1.5-fold of each other in IC50: 820 nM for the first, 730 nM for the second.

Compared with `Cn1cc(C(=O)NCc2ccc(Cl)cc2)c(=O)c2cc(/C=C\CO)cc(F)c21` [Example 9, N-(4-Chlorobenzyl)-8-fluoro-6-[(Z)-3-hydroxy-1-propenyl)-1-methyl-4-oxo-1,4-dihydro-3-quinolinecarboxamide], `Cn1cc(C(=O)NCc2ccc(Cl)cc2)c(=O)c2cc(/C=C/CO)ccc21` [Example 22, N-(4-chlorobenzyl)-6-[(E)-3-hydroxy-1-propenyl]-1-methyl-4-oxo-1,4-dihydro-3-quinolinecarboxamide] is higher in IC50: under 780 nM for the first, 810 nM for the second.

`Cn1cc(C(=O)NCc2ccc(Cl)cc2)c(=O)c2cccc(C#CCO)c21` [Example 96, N-(4-Chlorobenzyl)-8-(3-hydroxy-1-propynyl)-1-methyl-4-oxo-1,4-dihydro-3-quinolinecarboxamide] and `Cn1cc(C(=O)NCc2ccc(Cl)cc2)c(=O)c2cc(C#CCO)cc(F)c21` [Example 8, N-(4-Chlorobenzyl)-8-fluoro-6-(3-hydroxy-1-propynyl)-1-methyl-4-oxo-1,4-dihydro-3-quinolinecarboxamide] are the same in IC50: 1000 nM for the first, 1000 nM for the second.

Going from `C#CCn1cc(C(=O)NCc2ccc(Cl)cc2)c(=O)c2cc(CN3CCOCC3)ccc21` [Example 59, N-(4-Chlorobenzyl)-6-(4-morpholinylmethyl)-4-oxo-1-(2-propynyl)-1,4-dihydro-3-quinolinecarboxamide] to `CC[S+]([O-])CCn1cc(C(=O)NCc2ccc(Cl)cc2)c(=O)c2cc(CN3CCOCC3)ccc21` (centres unmarked) [Example 68, N-(4-Chlorobenzyl)-1-[2-(ethylsulfinyl)ethyl]-6-(4-morpholinylmethyl)-4-oxo-1,4-dihydro-3-quinolinecarboxamide], the IC50 falls from 1900 nM to 930 nM (2-fold). The second is the more potent here.

`COCCOCn1cc(C(=O)NCc2ccc(Cl)cc2)c(=O)c2cc(CN3CCOCC3)ccc21` [Example 105, N-(4-Chlorobenzyl)-1-[(2-methoxyethoxy)methyl]-6-(4-morpholinylmethyl)-4-oxo-1,4-dihydro-3-quinolinecarboxamide] and `COCCOCCn1cc(C(=O)NCc2ccc(Cl)cc2)c(=O)c2cc(CN3CCOCC3)ccc21` [Example 84] are within 1.5-fold of each other in IC50: 1300 nM for the first, 1200 nM for the second.

Going from `COCCOCCn1cc(C(=O)NCc2ccc(Cl)cc2)c(=O)c2cc(CN3CC[C@@H](O)C3)ccc21` [Example 87, N-(4-Chlorobenzyl)-6-{[(3R)-3-hydroxypyrrolidinyl]methyl}-1-[2-(2-methoxyethoxy)ethyl]-4-oxo-1,4-dihydro-3-quinolinecarboxamide] to `Cn1cc(C(=O)NCc2ccc(Cl)cc2)c(=O)c2cc(CN3CC=C(F)CC3)ccc21` [Example 53, N-(4-Chlorobenzyl)-6-((4-fluoro-3,6-dihydro-1(2H)-pyridinyl)methyl)-1-methyl-4-oxo-1,4-dihydro-3-quinolinecarboxamide], the IC50 rises from 4000 nM to 11700 nM (2.9-fold).

Compared with `O=C(NCc1ccc(Cl)cc1)c1cn(N2CCOCC2)c2ccc(CN3CCOCC3)cc2c1=O` [Example 112, N-(4-Chlorobenzyl)-1-(4-morpholinyl)-6-(4-morpholinylmethyl)-4-oxo-1,4-dihydro-3-quinolinecarboxamide], `O=C(NCc1ccc(Br)cc1)c1cn(N2CCOCC2)c2ccc(CN3CCOCC3)cc2c1=O` [Example 124, N-(4-Bromobenzy)-1-(4-morpholinyl)-6-(4-morpholinylmethyl)-4-oxo-1,4-dihydro-3-quinolinecarboxamide] is 2.9-fold higher in IC50: 420 nM for the first, 1200 nM for the second.

First: CC(C)(C)OP(=O)(OCCCc1ccc2c(c1)c(=O)c(C(=O)NCc1ccc(Cl)cc1)cn2C1CC1)OC(C)(C)C [Example 34, Di(tert-butyl) 3-(3-{[(4-chlorobenzyl)amino]carbonyl}-1-cyclopropyl-4-oxo-1,4-dihydro-6-quinolinyl)propyl phosphate]
Second: CN(Cc1ccc2c(c1)c(=O)c(C(=O)NCc1ccc(Cl)cc1)cn2C)CC(O)c1ccccc1 (centres unmarked) [Example 63, N-(4-Chlorobenzyl)-6-{[(2-hydroxy-2-phenylethyl)(methyl)-amino]methyl}-1-methyl-4-oxo-1,4-dihydro-3quinolinecarboxamide]
The IC50 of the first is higher: over 20000 nM for the first, 1300 nM for the second.
